Test results taken from ChEMBL document CHEMBL1201862, “PubChem BioAssay data set” (2004).
Calls of active or inactive are those of the source.

Assays:
[1] = target: T1, RNA-binding protein pos-1 (Caenorhabditis elegans, UniProt G5EF15); experiment: inhibitors of POS-1/mex-3 RNA binding, dose response, biochemical, fluorescence polarization (AID 1964);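 note: purified POS-1 fused to maltose binding protein made in E. coli; potency of compounds blocking POS-1 binding to fluorescent RNA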
T1 sequence (G5EF15 whole entry): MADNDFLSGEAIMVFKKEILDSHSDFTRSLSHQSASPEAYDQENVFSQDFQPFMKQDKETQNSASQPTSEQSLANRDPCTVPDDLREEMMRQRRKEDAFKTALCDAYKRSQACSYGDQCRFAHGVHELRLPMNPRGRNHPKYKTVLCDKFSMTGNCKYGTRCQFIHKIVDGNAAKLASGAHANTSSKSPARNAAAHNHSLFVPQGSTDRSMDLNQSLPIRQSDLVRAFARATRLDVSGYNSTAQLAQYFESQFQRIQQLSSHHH

[2] = target: T2, Zinc finger protein mex-5 (Caenorhabditis elegans, UniProt Q9XUB2); experiment: MEX-5/TCR-2 RNA interaction inhibitors, dose response, biochemical, C. elegans, fluorescence polarization (AID 1960)
T2 sequence (Q9XUB2 whole entry): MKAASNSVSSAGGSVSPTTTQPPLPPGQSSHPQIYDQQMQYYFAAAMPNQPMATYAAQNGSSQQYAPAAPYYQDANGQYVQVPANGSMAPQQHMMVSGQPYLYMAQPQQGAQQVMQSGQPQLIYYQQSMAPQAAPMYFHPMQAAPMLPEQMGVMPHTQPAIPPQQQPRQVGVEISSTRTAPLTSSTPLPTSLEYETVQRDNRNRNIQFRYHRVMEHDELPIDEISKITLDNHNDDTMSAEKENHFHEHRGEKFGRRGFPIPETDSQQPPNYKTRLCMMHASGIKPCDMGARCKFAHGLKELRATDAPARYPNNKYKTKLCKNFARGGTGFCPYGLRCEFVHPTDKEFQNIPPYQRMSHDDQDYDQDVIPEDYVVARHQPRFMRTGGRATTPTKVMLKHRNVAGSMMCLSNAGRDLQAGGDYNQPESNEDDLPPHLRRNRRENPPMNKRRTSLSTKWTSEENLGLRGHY

[3] = target: Voltage-dependent T-type calcium channel subunit alpha-1H (Homo sapiens, UniProt O95180); assay type: functional;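 note: channel activity triggered by adding a high calcium stimulation buffer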
[4] = target: T3, Probable nicotinate-nucleotide adenylyltransferase (Staphylococcus aureus (strain N315), UniProt P65502); assay type: functional, Staphylococcus aureus subsp. aureus N315;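 for IC50 Mean: confirmatory dose-response retesting of NadD inhibitor hits first found in an ultra-high-throughput screen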
[5] = target: T3, Probable nicotinate-nucleotide adenylyltransferase; assay type: functional, Staphylococcus aureus subsp. aureus N315; details: read-out: IC50_Mean
[6] = HEp-2 cell cytotoxicity, dose response, cytotoxicity control for RSV inhibitor project, HTS (AID 2410); assay type: functional; details: human respiratory syncytial virus
cells [7] = experiment: cells
[8] = target: G-protein coupled receptor 55 (Homo sapiens, UniProt Q9Y2T6); experiment: GPR55 antagonists blocking LPI-driven arrestin recruitment, primary screen, imaging, U2OS, beta-arrestin-GFP, LPI agonist (AID 2013); assay type: functional;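 note: antagonist potency measured as reduced agonist-driven arrestin aggregation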
[9] = insulin promoter down-regulators in MIN6 cells, imaging, high-content screening, mouse beta cells (AID 1628); assay type: functional
[10] = cytotoxicity in MIN6 insulinoma cells, dose response, cytotoxicity control, cell-based, mouse insulinoma (AID 2122); assay type: functional;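 note: confirmatory high-throughput counterscreen run to flag cytotoxic compounds; mouse MIN-6 beta cells carrying an insulin promoter eGFP reporter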
[11] = inhibitors of intracellular T. cruzi replication, confirmation, NIH3T3 host cells, beta-gal luminescence (AID 2044); assay type: functional, cell-based;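 note: intracellular parasites grown in NIH/3T3 mouse fibroblasts as host cells; luminescent beta-galactosidase reporter signal from transgenic T. cruzi replicating inside host cells; inhibitors lower the luminescence signal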
[12] = cytotoxicity toward NIH3T3 fibroblasts, dose response, counter-screen, cell-based, ATP luminescence, mouse fibroblasts (AID 2010); assay type: functional;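 note: cells exposed to compound for about 90 hours before reading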
INS1 = experiment: beta cell apoptosis inhibitors, cytokine rescue, dose response, luminescence, retest (AID 449756); assay type: functional, cell-based; details: Rattus norvegicus;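 note: cell death triggered by IL-1 beta plus TNF-alpha plus IFN-gamma mixture; protective hits raise ATP signal compared with cytokine alone wells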
Vero [13] = experiment: cells; assay type: functional, cell-based; details: Chlorocebus sabaeus
Vero [14] = experiment: cells; assay type: functional; details: Chlorocebus sabaeus
Estrogen receptor = target: T4, Estrogen receptor (Homo sapiens, UniProt P03372);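 note: potency for inhibiting coactivator peptide recruitment to the receptor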
T4 sequence (P03372 whole entry): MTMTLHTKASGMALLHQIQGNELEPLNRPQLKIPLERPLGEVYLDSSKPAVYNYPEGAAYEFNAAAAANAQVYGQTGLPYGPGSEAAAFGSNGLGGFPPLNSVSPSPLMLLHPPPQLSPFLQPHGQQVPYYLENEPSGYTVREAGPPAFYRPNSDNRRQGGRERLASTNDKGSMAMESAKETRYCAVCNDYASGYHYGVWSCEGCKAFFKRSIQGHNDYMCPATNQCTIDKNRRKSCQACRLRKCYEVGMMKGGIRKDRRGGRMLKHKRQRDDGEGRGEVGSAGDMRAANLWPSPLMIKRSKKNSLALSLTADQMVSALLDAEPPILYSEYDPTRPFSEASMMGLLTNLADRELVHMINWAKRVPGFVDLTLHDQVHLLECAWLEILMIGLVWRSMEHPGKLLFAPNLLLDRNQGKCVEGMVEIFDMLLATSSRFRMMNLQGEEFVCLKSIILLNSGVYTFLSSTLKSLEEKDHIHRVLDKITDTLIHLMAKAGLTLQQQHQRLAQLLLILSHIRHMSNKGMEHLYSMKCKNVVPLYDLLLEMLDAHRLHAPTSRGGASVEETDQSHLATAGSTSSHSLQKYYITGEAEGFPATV

Estrogen receptor beta [15] = target: T5, Estrogen receptor beta (Homo sapiens, UniProt Q92731);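 note: recombinant ER-beta bound to coactivator SRC1 peptide in presence of estradiol agonist; inhibitors block coactivator peptide binding and lower the FRET signal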
Estrogen receptor beta [16] = target: T5, Estrogen receptor beta; experiment: ERβ–SRC-3 coactivator interaction inhibitors, confirmation, orthogonal assay, biochemical, ELISA, streptavidin-HRP readout (AID 1060)
[17] = NIH-3T3 fibroblast cytotoxicity, dose response, cytotoxicity control, cell-based, fluorescence, Alamar Blue, secondary assay (AID 2327); assay type: functional;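 note: NIH-3T3 mouse fibroblasts cultured with fluconazole at 8 µg/mL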
[18] = test system: Streptococcus sp. 'group A'; experiment: growth inhibition of control SK(-) GAS strain, dose response, counter-screen for streptokinase expression inhibitor project, luminescence, kanamycin, BacTiterGlo, confirmation (AID 1900); assay type: functional, organism-based
cells [19] = assay type: functional, cell-based
[20] = C. albicans growth with fluconazole, confirmation, fluorescence, retest (AID 2467); assay type: functional, cell-based
[21] = Luminescence-based counterscreen assay for KLF5 inhibitors: dose response cell-based high throughput screening assay to identify cytotoxic compounds using the IEC-6 intestinal epithelial cell line. [Related pubchem assays: 1700 (Primary screen.), 1834 (Confirmation screen.), 1858 (Summary AID.), 1905 (Counterscreen.)]; assay type: functional
cells [22] = assay type: functional, cell-based; remark: listed apart in the source
Streptococcus = experiment: Group A Streptococcus viability loss, dose response, counter-screen for streptokinase expression inhibitor project, luminescence, BacTiterGlo (AID 1915); assay type: functional, organism-based;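 note: potency for reduction of bacterial viability or growth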
HEK293 = experiment: cells; assay type: functional, cell-based; details: Homo sapiens
[23] = target: T6, Nuclear receptor subfamily 0 group B member 1 (Homo sapiens, UniProt P51843); experiment: Luminescence-based cell-based high throughput dose response assay for inhibitors of the orphan nuclear receptor subfamily 0, group B, member 1 (DAX1; NR0B1). [Related pubchem assays (depositor defined):AID504766, AID504790]; assay type: functional
T6 sequence (P51843 whole entry): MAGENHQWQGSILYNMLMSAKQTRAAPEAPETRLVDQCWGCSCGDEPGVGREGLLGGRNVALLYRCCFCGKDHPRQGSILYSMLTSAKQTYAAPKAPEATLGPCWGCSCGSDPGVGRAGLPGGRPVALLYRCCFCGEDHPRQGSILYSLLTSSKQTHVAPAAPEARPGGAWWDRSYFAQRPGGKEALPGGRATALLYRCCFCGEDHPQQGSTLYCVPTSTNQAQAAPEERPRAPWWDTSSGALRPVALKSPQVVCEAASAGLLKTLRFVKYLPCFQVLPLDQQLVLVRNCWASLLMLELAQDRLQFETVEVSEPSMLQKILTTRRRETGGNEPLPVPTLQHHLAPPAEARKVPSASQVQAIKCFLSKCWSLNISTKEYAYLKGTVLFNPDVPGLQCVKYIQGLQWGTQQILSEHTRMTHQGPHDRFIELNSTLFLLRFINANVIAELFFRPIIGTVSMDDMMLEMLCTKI

Vero [24] = experiment: Vero cell cytotoxicity, cytotoxicity control for flavivirus capping enzyme inhibitors (AID 588742); assay type: functional; details: Chlorocebus sabaeus
[25] = cytotoxicity in HEK-293T cells, dose response, cytotoxicity control for TCR NF-kB inhibitor project, luminescence, T-cell screen hits (AID 489026); assay type: functional, cell-based;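 note: cells exposed to compound about 14 hours before the viability readout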
Protein Wnt-3a = Protein Wnt-3a (Mus musculus, UniProt P27467); experiment: Wnt3a-driven reporter signaling inhibition, dose response, selectivity assay for Gli-SUFU antagonist project, Wnt-LIGHT cells, luminescence (AID 651570); assay type: functional; details: read-out: IC50_Mean;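 note: Wnt-LIGHT reporter cells stimulated with conditioned medium from Wnt3a-producing cells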
Sequence of Protein Wnt-3a (P27467 whole entry): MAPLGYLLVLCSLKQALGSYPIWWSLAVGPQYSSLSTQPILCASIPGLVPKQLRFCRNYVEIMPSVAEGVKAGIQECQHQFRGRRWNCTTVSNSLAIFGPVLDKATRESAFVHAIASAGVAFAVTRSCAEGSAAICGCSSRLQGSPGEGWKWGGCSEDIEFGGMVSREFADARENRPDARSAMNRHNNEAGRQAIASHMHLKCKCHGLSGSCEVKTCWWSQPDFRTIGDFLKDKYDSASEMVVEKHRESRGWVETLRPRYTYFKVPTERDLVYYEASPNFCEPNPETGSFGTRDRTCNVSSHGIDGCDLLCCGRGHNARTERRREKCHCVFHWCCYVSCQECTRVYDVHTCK

Sequence of Voltage-dependent T-type calcium channel subunit alpha-1H (O95180 whole entry): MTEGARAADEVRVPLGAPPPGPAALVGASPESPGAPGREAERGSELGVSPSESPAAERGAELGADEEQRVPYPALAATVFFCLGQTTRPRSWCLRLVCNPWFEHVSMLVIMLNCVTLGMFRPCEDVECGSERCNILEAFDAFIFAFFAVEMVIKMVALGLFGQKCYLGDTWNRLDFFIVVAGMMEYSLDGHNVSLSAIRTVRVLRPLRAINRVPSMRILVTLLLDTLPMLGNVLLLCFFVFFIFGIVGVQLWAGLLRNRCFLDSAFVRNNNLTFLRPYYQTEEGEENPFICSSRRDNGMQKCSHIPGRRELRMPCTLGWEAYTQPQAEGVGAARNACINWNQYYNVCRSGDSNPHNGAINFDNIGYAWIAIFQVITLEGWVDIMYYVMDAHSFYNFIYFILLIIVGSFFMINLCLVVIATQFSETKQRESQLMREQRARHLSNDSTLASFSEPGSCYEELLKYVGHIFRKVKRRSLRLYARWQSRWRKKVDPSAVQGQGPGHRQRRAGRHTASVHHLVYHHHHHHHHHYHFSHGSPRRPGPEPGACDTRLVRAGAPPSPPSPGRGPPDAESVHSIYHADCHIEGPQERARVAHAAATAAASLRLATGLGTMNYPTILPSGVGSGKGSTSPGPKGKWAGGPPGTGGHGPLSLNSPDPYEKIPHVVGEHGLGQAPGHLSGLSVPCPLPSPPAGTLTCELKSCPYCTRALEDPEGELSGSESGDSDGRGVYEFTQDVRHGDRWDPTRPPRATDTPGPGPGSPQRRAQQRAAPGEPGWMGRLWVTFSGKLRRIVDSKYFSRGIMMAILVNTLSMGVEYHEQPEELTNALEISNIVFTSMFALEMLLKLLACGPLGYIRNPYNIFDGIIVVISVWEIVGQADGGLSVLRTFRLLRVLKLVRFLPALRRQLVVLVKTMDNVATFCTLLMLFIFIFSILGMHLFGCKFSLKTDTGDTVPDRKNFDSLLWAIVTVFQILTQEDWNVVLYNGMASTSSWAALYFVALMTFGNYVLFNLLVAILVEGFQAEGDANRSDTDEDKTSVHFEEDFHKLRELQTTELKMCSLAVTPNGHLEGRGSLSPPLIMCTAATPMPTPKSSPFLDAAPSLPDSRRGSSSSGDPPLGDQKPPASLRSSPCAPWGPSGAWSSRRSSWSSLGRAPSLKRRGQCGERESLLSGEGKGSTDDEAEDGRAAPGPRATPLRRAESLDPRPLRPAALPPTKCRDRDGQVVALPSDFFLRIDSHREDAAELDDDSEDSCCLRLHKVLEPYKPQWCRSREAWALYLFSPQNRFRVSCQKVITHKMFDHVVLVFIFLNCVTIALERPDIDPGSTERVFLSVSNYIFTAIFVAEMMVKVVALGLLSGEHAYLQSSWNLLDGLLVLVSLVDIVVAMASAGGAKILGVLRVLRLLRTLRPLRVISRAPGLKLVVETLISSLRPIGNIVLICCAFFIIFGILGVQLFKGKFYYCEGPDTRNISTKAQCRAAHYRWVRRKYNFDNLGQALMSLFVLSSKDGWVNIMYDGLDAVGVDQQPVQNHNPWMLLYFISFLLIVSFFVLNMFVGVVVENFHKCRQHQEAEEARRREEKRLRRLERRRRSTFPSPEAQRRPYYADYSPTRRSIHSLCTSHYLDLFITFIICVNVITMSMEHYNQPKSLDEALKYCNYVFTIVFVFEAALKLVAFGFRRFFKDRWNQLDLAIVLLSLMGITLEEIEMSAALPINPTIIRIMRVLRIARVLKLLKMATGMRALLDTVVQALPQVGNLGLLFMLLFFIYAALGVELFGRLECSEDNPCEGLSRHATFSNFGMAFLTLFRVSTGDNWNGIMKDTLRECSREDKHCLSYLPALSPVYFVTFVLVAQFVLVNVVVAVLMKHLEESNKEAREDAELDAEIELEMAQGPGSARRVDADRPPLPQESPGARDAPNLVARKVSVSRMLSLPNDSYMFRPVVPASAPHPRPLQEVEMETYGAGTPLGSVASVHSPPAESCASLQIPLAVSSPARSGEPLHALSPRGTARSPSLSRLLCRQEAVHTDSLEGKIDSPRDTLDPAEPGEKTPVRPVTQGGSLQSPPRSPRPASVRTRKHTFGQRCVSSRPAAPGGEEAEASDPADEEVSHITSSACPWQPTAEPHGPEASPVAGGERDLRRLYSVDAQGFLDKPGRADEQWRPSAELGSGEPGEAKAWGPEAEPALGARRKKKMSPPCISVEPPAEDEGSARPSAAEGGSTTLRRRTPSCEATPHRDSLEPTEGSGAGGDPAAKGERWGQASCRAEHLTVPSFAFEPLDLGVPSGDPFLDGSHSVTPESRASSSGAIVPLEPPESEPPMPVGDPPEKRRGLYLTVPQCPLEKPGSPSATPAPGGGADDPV
T3 sequence (P65502 whole entry): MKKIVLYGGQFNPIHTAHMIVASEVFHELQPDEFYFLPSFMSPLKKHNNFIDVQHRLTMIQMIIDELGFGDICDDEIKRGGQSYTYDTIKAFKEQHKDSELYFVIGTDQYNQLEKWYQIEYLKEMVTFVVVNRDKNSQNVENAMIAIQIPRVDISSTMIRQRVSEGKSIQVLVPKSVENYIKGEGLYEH
T5 sequence (Q92731 whole entry): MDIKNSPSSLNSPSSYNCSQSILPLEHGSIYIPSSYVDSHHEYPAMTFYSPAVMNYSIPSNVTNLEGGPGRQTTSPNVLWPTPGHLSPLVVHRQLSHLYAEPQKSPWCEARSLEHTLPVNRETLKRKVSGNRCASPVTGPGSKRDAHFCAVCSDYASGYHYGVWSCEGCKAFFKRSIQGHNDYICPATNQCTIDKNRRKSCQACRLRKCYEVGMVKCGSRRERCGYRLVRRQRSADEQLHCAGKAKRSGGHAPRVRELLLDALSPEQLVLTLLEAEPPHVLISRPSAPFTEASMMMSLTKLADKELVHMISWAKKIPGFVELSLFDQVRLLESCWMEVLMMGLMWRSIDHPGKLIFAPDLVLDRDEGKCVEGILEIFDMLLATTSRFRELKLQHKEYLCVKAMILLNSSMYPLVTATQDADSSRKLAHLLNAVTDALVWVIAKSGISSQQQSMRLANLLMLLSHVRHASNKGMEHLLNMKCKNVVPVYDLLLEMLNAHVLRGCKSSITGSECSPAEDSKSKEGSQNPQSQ
Sequence of G-protein coupled receptor 55 (Q9Y2T6 whole entry): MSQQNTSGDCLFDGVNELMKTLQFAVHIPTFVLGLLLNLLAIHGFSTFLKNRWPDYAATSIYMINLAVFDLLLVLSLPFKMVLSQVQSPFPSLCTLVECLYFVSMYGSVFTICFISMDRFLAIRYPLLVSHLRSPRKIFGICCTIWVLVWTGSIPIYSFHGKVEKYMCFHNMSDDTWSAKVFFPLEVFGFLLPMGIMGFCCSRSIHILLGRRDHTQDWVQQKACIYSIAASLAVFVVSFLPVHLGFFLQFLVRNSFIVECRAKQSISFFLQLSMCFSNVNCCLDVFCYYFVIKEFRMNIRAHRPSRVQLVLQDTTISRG

## CCn1c(SCc2ccc(C)cc2)nnc1C1CCN(S(=O)(=O)c2ccc(OC)cc2)CC1
[1]
  EC50: > 300 µM (not active)
[2]
  EC50: > 300 µM (not active)
[3]
  EC50: 6.41 µM (active)

## Cc1ccc(-n2nc3c(c2NC(=O)c2cccs2)CSC3)cc1
[3]
  EC50: 0.558 µM (active)
[4]
  IC50: 6.35 µM (active)
[5]
  IC50: 16.2 µM (active)

## O=C(CNC(=O)c1cccs1)N=Nc1c(O)[nH]c2ccc([N+](=O)[O-])cc12
[6]
  CC50: > 50 µM (active)
Cells [7]
  IC50: 14.6 µM (active)

## COc1ccc(OC)c(N2C(=O)NC(=O)/C(=C/c3c(C)[nH]c4ccccc34)C2=O)c1
[8]
  IC50: < 0.5 µM (active)

## Cc1[nH]n(C2=NCCS2)c(=O)c1N=Nc1cccc(C(F)(F)F)c1
[9]
  IC50: 1.75 µM (active)
[10]
  IC50: 2.2 µM (active)
[11]
  EC50: 0.669 µM (active)
[12]
  EC50: > 60 µM (not active)
INS1
  AC50: 2.5 µM (active)

## Cc1nn(Cc2ccccc2Cl)c(C)c1C(=O)Nc1nnc(C2CC2)s1
[6]
  CC50: 7.49 µM (active)
Vero [13]
  IC50: 5.21 µM (active)
Vero [14]
  CC50: > 25 µM (active)
Cells [7]
  IC50: 3.75 µM (active)

## CCOCCCNc1[nH]cnc2c3ccccc3nc1-2
[9]
  IC50: 2.76 µM (active)
[10]
  IC50: 2.31 µM (active)

## Cc1ccc(-n2c(=O)c(C#N)cc3c(=O)n4cccc(C)c4nc32)cc1
Estrogen receptor
  IC50: 30.9 µM (not active)
Estrogen receptor beta [15]
  IC50: 25.4 µM (active)
Estrogen receptor beta [16]
  IC50: < 77 µM (not active)

## COc1ccc(OC)c2[nH]c(C(=O)N/N=C/c3ccccc3O)cc12
[17]
  EC50: > 160 µM (inactive)
[18]
  EC50: 1.96 µM (active)
Cells [19]
  EC50: 12.2 µM (active)
[20]
  EC50: 1.86 µM (active)
[21]
  IC50: 12.5 µM (not active)
Cells [22]
  EC50: > 350 µM (not active)
Streptococcus
  EC50: 2.37 µM (active)
INS1
  AC50: 2.12 µM (active)

## Cn1c(-c2ccccc2)c(/C=N/NC(=O)c2ccc(O)cc2)c2ccccc21
HEK293
  IC50: > 67.5 µM (inactive)
[23]
  IC50: > 67.5 µM (inactive)

## CN1CCN(S(=O)(=O)c2cccc(C(=O)Nc3sc4c(c3-c3nc5ccccc5[nH]3)CCCC4)c2)CC1
[11]
  EC50: 1.67 µM (active)
[12]
  EC50: > 60 µM (not active)
Vero [24]
  CC50: > 40 µM (active)

## COc1ccc(N2C(=O)NC(=O)/C(=C\c3cn(CC(=O)N4CCOCC4)c4ccccc34)C2=O)c(OC)c1
[1]
  EC50: > 300 µM (not active)
[2]
  EC50: > 300 µM (not active)
[8]
  IC50: 1.59 µM (active)

## Brc1ccc2c(c1)C(C1=NCCN1)c1ccccc1CS2 (stereo unspecified)
[25]
  IC50: > 80 µM (inactive)

## O=C(Nc1nc2ccc(S(=O)(=O)N3CCCC3)cc2s1)C1CCCCC1
[25]
  IC50: > 80 µM (inactive)

## COC(=O)c1[nH]c2ccccc2c1NC(=O)CN1CCCCCC1
[9]
  IC50: 3.51 µM (active)
[10]
  IC50: 2.63 µM (active)

## CC1CCN(Cc2c(C(=O)N/N=C/c3ccccc3O)nnn2-c2nonc2N)CC1
Cells [19]
  EC50: 29.5 µM (active)
[21]
  IC50: 4.81 µM (active)
Cells [22]
  EC50: > 350 µM (not active)
INS1
  AC50: 0.9 µM (active)
Protein Wnt-3a
  IC50: 20.8 µM (inactive)

## O=C(CSc1nnc(Cc2cc(O)nc(O)n2)n1-c1ccc(F)cc1)N1CCCCC1
HEK293
  IC50: > 67.6 µM (inactive)
[23]
  IC50: > 67.6 µM (inactive)

## COc1ccccc1NC(=O)N1CCc2[nH]c3ccc(F)cc3c2C1
[6]
  CC50: > 50 µM (active)
[3]
  EC50: 5.47 µM (active)

## COc1ccccc1N1CCN(S(=O)(=O)c2cc(C(F)(F)F)cc(C(F)(F)F)c2)CC1
HEK293
  IC50: > 67.5 µM (inactive)
[23]
  IC50: > 67.5 µM (inactive)

## COc1ccc(CSc2nnc(NC(C)=O)s2)cc1[N+](=O)[O-]
Vero [24]
  CC50: > 40 µM (active)

## O=C(CN1C(=O)NC2(CCCC2)C1=O)NCC1CCCO1 (stereo unspecified)
HEK293
  IC50: > 67.5 µM (inactive)
[23]
  IC50: > 67.5 µM (inactive)

## CC1=Nc2cc(C(=O)N3CCCC3)ccc2Sc2c(C)ccc(C)c21
[6]
  CC50: 7.28 µM (active)
Vero [13]
  IC50: 8.21 µM (active)
Vero [14]
  CC50: 16.9 µM (active)
Cells [7]
  IC50: 3.34 µM (active)
